What was measured:
PC-3 [1] = assay: Induction of apoptosis in human PC3 cells assessed as viable cells at 20 uM after 16 hrs by F2N12S/CYTOX AADvanced double staining-based flow cytometric method (reference value: 95%); assay type: functional; settings: PC-3, 16 h, read-out: Activity
CWR22R = assay: Antiproliferative activity against human 22Rv1 cells expressing androgen receptor splice variants assessed as decrease in cell viability after 5 days by trypan blue exclusion assay; assay type: functional, cell-based; settings: 22Rv1, 120 h
PC-3 [2] = assay: Cell cycle arrest in human PC3 cells assessed as accumulation at G2 phase at 5 uM after 24 hrs by propidium iodide staining-based flow cytometric method (reference value: 24%); assay type: functional
PC-3 [3] = assay: Induction of apoptosis in human PC3 cells assessed as viable cells at 30 uM after 16 hrs by F2N12S/CYTOX AADvanced double staining-based flow cytometric method (reference value: 95%); assay type: functional; settings: PC-3, 16 h, read-out: Activity
PC-3 [4] = assay: Induction of apoptosis in human PC3 cells assessed as early apoptotic cells at 15 uM after 16 hrs by F2N12S/CYTOX AADvanced double staining-based flow cytometric method (reference value: 2%); assay type: functional
PC-3 [5] = assay: Induction of apoptosis in human PC3 cells assessed as early apoptotic cells at 10 uM after 16 hrs by F2N12S/CYTOX AADvanced double staining-based flow cytometric method (reference value: 2%); assay type: functional
LNCaP = assay: Potency index, ratio of curcumin IC50 to test compound IC50 for human LNCAP cells; assay type: functional
PC-3 [6] = assay: Cell cycle arrest in human PC3 cells assessed as accumulation at G0/G1 phase at 5 uM after 16 hrs by propidium iodide staining-based flow cytometric method (reference value: 51 to 52%); assay type: functional
PC-3 [7] = assay: Induction of apoptosis in human PC3 cells assessed as viable cells at 15 uM after 16 hrs by F2N12S/CYTOX AADvanced double staining-based flow cytometric method (reference value: 95%); assay type: functional; settings: PC-3, 16 h, read-out: Activity
PC-3 [8] = assay: Induction of apoptosis in human PC3 cells assessed as early apoptotic cells at 40 uM after 16 hrs by F2N12S/CYTOX AADvanced double staining-based flow cytometric method (reference value: 2%); assay type: functional
PC-3 [9] = assay: Cell cycle arrest in human PC3 cells assessed as accumulation at G0/G1 phase at 5 uM after 24 hrs by propidium iodide staining-based flow cytometric method (reference value: 59 to 62%); assay type: functional
PC-3 [10] = assay: Induction of apoptosis in human PC3 cells assessed as late apoptotic/necrotic cells at 10 uM after 16 hrs by F2N12S/CYTOX AADvanced double staining-based flow cytometric method (reference value: 3%); assay type: functional
[11] = Antiproliferative activity against human LNCaP95 cells expressing androgen receptor splice variants assessed as decrease in cell viability after 5 days by trypan blue exclusion assay; assay type: functional, cell-based; settings: LNCaP-95, 120 h
PC-3 [12] = assay: Induction of apoptosis in human PC3 cells assessed as viable cells at 5 uM after 16 hrs by F2N12S/CYTOX AADvanced double staining-based flow cytometric method (reference value: 95%); assay type: functional; settings: PC-3, 16 h, read-out: Activity
PC-3 [13] = assay: Potency index, ratio of curcumin IC50 to test compound IC50 for human PC3 cells; assay type: functional

With `CCC(C)n1ccnc1/C=C/C(=O)/C=C/c1sc(C)nc1C(F)(F)F` (stereo not given) the viability at 20 µM (PC-3 [1]) was 51%, the IC50 (CWR22R) was 850 nM and the Activity (PC-3 [2]) was 21%. It also gave a viability at 30 µM (PC-3 [3]) of 34%, an Activity (PC-3 [4]) of 13% and an Activity (PC-3 [5]) of 14%. For the same compound, the “Ratio IC50” value (LNCaP) was 62, the Activity (PC-3 [6]) was 68% and the viability at 15 µM (PC-3 [7]) was 54%. It also gave an Activity (PC-3 [8]) of 25%, an Activity (PC-3 [9]) of 66% and an Activity (PC-3 [10]) of 37%. The IC50 [11] was 370 nM, the viability at 5 µM (PC-3 [12]) was 50% and the “Ratio IC50” value (PC-3 [13]) was 110.

— ChEMBL document CHEMBL4190216, “Asymmetric 1,5-diarylpenta-1,4-dien-3-ones: Antiproliferative activity in prostate epithelial cell models and pharmacokinetic studies” (Eur J Med Chem, 2017)
